Literature values, collected in patent US6921495B2, “Environmentally compatible defrosting and antifreeze agents for aeroplanes” (Clariant GmbH, priority 2001, dated 2005).
Like-named read-outs stand apart in the source and are kept apart here.

| Molecule | LD50 oral rat (rat; in vivo, po) [mg/kg] | LCO in Brachydanio rerio (Brachydanio rerio; Brachydanio rerio) [mg/L] | LD50 oral rat (rat; oral) [mg/kg] | LCO in Brachydanio rerio (Brachydanio rerio; in vivo) [mg/L] |
| --- | --- | --- | --- | --- |
| c1ccc2[nH]nnc2c1 [benzotriazole] | 560 | 100 | – | – |
| Tolyltriazole | – | – | 675 | 42.2 |
